Source: patent publication US20240190849A1, “AMINOPYRIMIDINE COMPOUNDS AND METHODS OF THEIR USE” (TYRA BIOSCIENCES, INC., priority 2021, published 2024)

Legend:
FGFR2 = target: T1, FGFR2 (Homo sapiens, UniProt P21802); experiment: Kinase binding assay (kinase-tagged T7 phage, affinity beads, qPCR readout), FGFR2; settings: FGFR binding data
T1 construct: made in house; host or cells: E. coli derived from BL21, infected with T7 phage
Outline: (§1)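 Competition binding: kinases displaced from biotinylated-ligand streptavidin beads by test compound in binding buffer (20% SeaBlock, 0.17×PBS, 0.05% Tween 20, 6 mM DTT), 1 hour at room temperature, 0.9% DMSO. Bead-bound kinase eluted with 0.5 μM free ligand, quantified by qPCR. Kd from 11-point 3-fold dilutions, Hill slope fixed at −1.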

FGFR3 (V555M) = target: T2, FGFR3 (V555M) (Homo sapiens, UniProt P22607, V555M); experiment: Kinase binding assay (kinase-tagged T7 phage, affinity beads, qPCR readout), FGFR3 (V555M); settings: FGFR binding data
T2 construct: made in house; host or cells: E. coli derived from BL21, infected with T7 phage
Outline: as §1

FGFR3 = target: T3, FGFR3 (Homo sapiens, UniProt P22607); experiment: Kinase binding assay (kinase-tagged T7 phage, affinity beads, qPCR readout), FGFR3; settings: FGFR binding data
T3 construct: made in house; host or cells: E. coli derived from BL21, infected with T7 phage
Outline: as §1

FGFR1 = target: T4, FGFR1 (Homo sapiens, UniProt P11362); experiment: Kinase binding assay (kinase-tagged T7 phage, affinity beads, qPCR readout), FGFR1; settings: FGFR binding data
T4 construct: made in house; host or cells: E. coli derived from BL21, infected with T7 phage
Outline: as §1

[1] = system: SNU-16 (Gastric Carcinoma), FGFR2 amplification; experiment: Cancer cell viability assay (Cell Titer-Glo), SNU-16; assay type: cell-based; settings: Homo sapiens, SNU-16 cells, 72 hours, read-out: SNU16 FGFR2 (IC50 nM)
Source text: RT112/84, UM-UC-14, SNU-16 and KG-1 Cancer Cell Line Cell Viability Assays
To detect the change of intracellular ATP by Cell Titer-Glo@ and to evaluate the inhibitory effect of the compounds on cancer cell lines by determining the in vitro IC50 value of the compounds.
Cell Titer-Glo@ 2.0 Luminescent cell viability assay reagent was purchased from Promega (Madison, WI). RT112/84, SNU-16, and KG-1 cell lines were purchased from American Type Culture Collection (Manassas, VA). UM-UC-14 cell line was purchased from Sigma (St. Louis, MO). RT112/84, UM-UC-14, SNU-16, and KG-1 cells were cultured in RPMI1640 media supplemented with 10% fetal bovine serum. Cultures were maintained at 37° C. in a humidified atmosphere of 5% CO2 and 95% air.
Cell Viability Assay Procedure: Cells were plated in 96-well clear bottom/white plates (Corning #3903) at 10,000 cells/well in 100 μl of media, incubated overnight. The next day, test compound DMSO stock solutions were made at 10 mM and 2 μM final concentration. Compounds were then added to cells in a 9-dose, […] dilution series starting at 30 μM with an HP 300e Digital Dispenser (each dose was applied in triplicate). DMSO was backfilled to each well up to 301 nL total volume of test compound+DMSO, and a total of 301 nL DMSO was added to a control/no test compound well in triplicate. The cells in cell culture plates were incubated with the compounds at 37° C. and 5% CO2 for 72 hours. Then 50 μl of Cell Titer Glo 2.0 reagent was added to each well of the cell culture plates. The contents were covered from light and mixed on an orbital shaker at room temperature for 10 min. Luminescence was recorded by a Synergy H1 Microplate Reader (Biotek, Winooski, VT). Cells were assessed as a percentage of DMSO only treated control cells. Curves were plotted and IC50 values were calculated using the GraphPad Prism 8 program based on a sigmoidal dose-response equation (4 parameter).

T3 sequence (P22607 23-806): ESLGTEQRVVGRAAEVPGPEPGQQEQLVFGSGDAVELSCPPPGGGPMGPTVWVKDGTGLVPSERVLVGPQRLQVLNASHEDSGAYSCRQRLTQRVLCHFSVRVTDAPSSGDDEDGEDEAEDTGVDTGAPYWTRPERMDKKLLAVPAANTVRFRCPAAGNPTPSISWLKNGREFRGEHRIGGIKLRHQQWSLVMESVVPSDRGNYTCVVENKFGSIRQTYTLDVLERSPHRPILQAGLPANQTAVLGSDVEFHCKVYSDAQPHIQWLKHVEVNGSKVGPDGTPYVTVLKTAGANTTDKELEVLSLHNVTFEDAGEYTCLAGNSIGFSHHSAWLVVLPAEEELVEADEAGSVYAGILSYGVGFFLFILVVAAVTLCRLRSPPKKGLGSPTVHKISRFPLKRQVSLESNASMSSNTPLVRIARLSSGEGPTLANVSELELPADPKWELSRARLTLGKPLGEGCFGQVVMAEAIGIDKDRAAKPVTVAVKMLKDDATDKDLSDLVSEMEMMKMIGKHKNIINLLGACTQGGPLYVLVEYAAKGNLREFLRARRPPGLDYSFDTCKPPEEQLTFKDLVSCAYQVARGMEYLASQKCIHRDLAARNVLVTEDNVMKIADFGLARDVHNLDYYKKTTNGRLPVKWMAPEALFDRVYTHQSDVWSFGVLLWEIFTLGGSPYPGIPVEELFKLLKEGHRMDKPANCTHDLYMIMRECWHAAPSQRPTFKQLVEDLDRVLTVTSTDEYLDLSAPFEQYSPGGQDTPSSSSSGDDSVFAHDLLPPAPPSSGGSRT
T2 sequence (P22607 23-806 V555M): as the sequence (P22607 23-806) above, with V533M counted along it
T1 sequence (P21802 22-821): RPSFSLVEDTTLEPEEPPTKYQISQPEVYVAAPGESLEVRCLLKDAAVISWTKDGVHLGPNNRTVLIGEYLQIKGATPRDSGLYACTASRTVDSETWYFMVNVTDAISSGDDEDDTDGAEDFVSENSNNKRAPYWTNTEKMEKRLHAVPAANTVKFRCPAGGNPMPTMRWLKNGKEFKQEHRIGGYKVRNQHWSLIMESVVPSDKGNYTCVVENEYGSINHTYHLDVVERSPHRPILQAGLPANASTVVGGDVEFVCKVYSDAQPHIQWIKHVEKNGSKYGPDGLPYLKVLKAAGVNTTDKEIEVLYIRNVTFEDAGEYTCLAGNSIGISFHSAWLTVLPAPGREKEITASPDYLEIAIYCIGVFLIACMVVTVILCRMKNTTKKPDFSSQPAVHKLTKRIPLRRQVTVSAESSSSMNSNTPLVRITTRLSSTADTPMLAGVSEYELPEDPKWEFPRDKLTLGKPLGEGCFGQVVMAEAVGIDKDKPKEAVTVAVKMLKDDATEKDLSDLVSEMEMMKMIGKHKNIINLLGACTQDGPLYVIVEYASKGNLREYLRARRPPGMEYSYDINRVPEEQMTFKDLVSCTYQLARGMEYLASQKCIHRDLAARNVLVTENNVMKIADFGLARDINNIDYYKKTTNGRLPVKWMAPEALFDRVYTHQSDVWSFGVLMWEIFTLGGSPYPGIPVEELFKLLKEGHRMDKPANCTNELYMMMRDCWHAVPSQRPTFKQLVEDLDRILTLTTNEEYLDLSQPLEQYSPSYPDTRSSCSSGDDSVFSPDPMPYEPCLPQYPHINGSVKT
T4 sequence (P11362 22-822): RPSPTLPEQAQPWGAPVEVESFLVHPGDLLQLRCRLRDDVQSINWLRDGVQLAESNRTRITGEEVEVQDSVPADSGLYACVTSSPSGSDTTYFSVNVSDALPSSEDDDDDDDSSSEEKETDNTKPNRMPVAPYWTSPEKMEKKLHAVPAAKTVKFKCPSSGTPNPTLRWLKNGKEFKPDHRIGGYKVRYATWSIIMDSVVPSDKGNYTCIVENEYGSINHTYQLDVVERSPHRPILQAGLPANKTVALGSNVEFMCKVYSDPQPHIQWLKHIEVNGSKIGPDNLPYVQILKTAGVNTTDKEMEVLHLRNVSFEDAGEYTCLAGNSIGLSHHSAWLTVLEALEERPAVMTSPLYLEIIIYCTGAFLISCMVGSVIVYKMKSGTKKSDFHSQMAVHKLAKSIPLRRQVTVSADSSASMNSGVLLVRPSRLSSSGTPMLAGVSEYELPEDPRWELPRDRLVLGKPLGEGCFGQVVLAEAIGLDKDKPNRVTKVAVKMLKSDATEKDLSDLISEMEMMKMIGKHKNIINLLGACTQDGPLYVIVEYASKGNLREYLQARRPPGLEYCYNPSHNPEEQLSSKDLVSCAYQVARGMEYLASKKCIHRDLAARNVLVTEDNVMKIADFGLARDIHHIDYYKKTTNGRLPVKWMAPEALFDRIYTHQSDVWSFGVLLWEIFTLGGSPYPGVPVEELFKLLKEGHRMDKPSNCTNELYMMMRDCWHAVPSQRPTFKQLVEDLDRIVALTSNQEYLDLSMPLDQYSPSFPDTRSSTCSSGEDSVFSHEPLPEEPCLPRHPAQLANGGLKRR

| SMILES | Kd (FGFR2) [nM] | Kd (FGFR3 (V555M)) [nM] | Kd (FGFR3) [nM] | Kd (FGFR1) [nM] | IC50 [1] [nM] |
| --- | --- | --- | --- | --- | --- |
| Cc1cnc(Nc2ccnn2C)nc1-n1cc(C)c2cc(NC(=O)/C=C/CN(C)C)ccc21 [Example 107, (E)-4-(dimethylamino)-N-[3-methyl-1-[5-methyl-2-[(2-methylpyrazol-3-yl)amino]pyrimidin-4-yl]indol-5-yl]but-2-enamide] | 100 to 250 | 0.1 to 100 | 0.1 to 100 | 250 to 1000 | 0.1 to 100 |
| C=CC(=O)Nc1ccc2c(c1)c(C)cn2-c1nc(Nc2ccn(C3COC3)n2)ncc1C [Example 120, N-[3-methyl-1-[5-methyl-2-[[1-(oxetan-3-yl)pyrazol-3-yl]amino]pyrimidin-4-yl]indol-5-yl]prop-2-enamide] | 0.1 to 100 | 0.1 to 100 | 0.1 to 100 | 0.1 to 100 | 0.1 to 100 |
| Cc1cnc(Nc2cnn(CCO)c2)nc1-n1cc(C)c2cc(NC(=O)/C=C/CN(C)C)ccc21 [Example 122, (E)-4-(dimethylamino)-N-[1-[2-[[1-(2-hydroxyethyl)pyrazol-4-yl]amino]-5-methyl-pyrimidin-4-yl]-3-methyl-indol-5-yl]but-2-enamide] | 0.1 to 100 | 0.1 to 100 | 0.1 to 100 | 0.1 to 100 | 0.1 to 100 |
| C=CC(=O)Nc1ccc2c(c1)c(C)cn2-c1nc(Nc2cc(C)[nH]n2)ncc1C [Example 123, N-[3-methyl-1-[5-methyl-2-[(5-methyl-1H-pyrazol-3-yl)amino]pyrimidin-4-yl]indol-5-yl]prop-2-enamide] | 0.1 to 100 | 0.1 to 100 | 0.1 to 100 | 0.1 to 100 | 0.1 to 100 |
| C=CC(=O)Nc1cnc2c(c1)c(C)cn2-c1nc(Nc2cc(C)n(C(=O)OC(C)(C)C)n2)ncc1C [Example 124, tert-butyl 5-methyl-3-[[5-methyl-4-[3-methyl-5-(prop-2-enoylamino)pyrrolo[2,3-b]pyridin-1-yl]pyrimidin-2-yl]amino]pyrazole-1-carboxylate] | 100 to 250 | 0.1 to 100 | 0.1 to 100 | 100 to 250 | 0.1 to 100 |
| C=CC(=O)Nc1cnc2c(c1)c(C)cn2-c1nc(Nc2cnn(CCO)c2)ncc1C [Example 125, N-[1-[2-[[1-(2-hydroxyethyl)pyrazol-4-yl]amino]-5-methyl-pyrimidin-4-yl]-3-methyl-pyrrolo[2,3-b]pyridin-5-yl]prop-2-enamide] | 0.1 to 100 | 0.1 to 100 | 0.1 to 100 | 0.1 to 100 | 0.1 to 100 |
| C=CC(=O)Nc1ccc2c(-c3nc(Nc4cnn(CCO)c4)ncc3C)cn(C)c2c1 [Example 126, N-[3-[2-[[1-(2-hydroxyethyl)pyrazol-4-yl]amino]-5-methyl-pyrimidin-4-yl]-1-methyl-indol-6-yl]prop-2-enamide] | 0.1 to 100 | 0.1 to 100 | 0.1 to 100 | 0.1 to 100 | 0.1 to 100 |
| C=CC(=O)Nc1ccc2c(-c3nc(Nc4cnn(CCO)c4)ncc3Cl)cn(C)c2c1 [Example 127, N-[3-[5-chloro-2-[[1-(2-hydroxyethyl)pyrazol-4-yl]amino]pyrimidin-4-yl]-1-methyl-indol-6-yl]prop-2-enamide] | 0.1 to 100 | 0.1 to 100 | 0.1 to 100 | 0.1 to 100 | 0.1 to 100 |
| C=CC(=O)Nc1ccc2c(-c3nc(Nc4cnn(CCO)c4)ncc3F)cn(C)c2c1 [Example 128, N-[3-[5-fluoro-2-[[1-(2-hydroxyethyl)pyrazol-4-yl]amino]pyrimidin-4-yl]-1-methyl-indol-6-yl]prop-2-enamide] | 0.1 to 100 | 0.1 to 100 | 0.1 to 100 | 0.1 to 100 | 0.1 to 100 |
| Cc1cn(-c2nc(Nc3cnn(CCO)c3)ncc2F)c2ccc(NC(=O)/C=C/CN(C)C)cc12 [Example 144, (E)-4-(dimethylamino)-N-[1-[5-fluoro-2-[[1-(2-hydroxyethyl)pyrazol-4-yl]amino]pyrimidin-4-yl]-3-methyl-indol-5-yl]but-2-enamide] | 0.1 to 100 | 0.1 to 100 | 0.1 to 100 | 0.1 to 100 | 0.1 to 100 |
| C=CC(=O)Nc1ccc2c(c1)c(C)cn2-c1nc(Nc2cnn(C)c2C)ncc1C [Example 147, N-[1-[2-[(1,5-dimethylpyrazol-4-yl)amino]-5-methyl-pyrimidin-4-yl]-3-methyl-indol-5-yl]prop-2-enamide] | 0.1 to 100 | 0.1 to 100 | 0.1 to 100 | 0.1 to 100 | 0.1 to 100 |
| C=CC(=O)Nc1ccc2c(c1)c(C)cn2-c1nc(Nc2cnsc2)ncc1F [Example 148, N-[1-[5-fluoro-2-(isothiazol-4-ylamino)pyrimidin-4-yl]-3-methyl-indol-5-yl]prop-2-enamide] | 0.1 to 100 | 0.1 to 100 | 0.1 to 100 | 0.1 to 100 | 0.1 to 100 |
| C=CC(=O)Nc1ccc2c(c1)c(C)cn2-c1nc(Nc2cn(C(F)F)nc2C)ncc1F [Example 149, N-[1-[2-[[1-(difluoromethyl)-3-methyl-pyrazol-4-yl]amino]-5-fluoro-pyrimidin-4-yl]-3-methyl-indol-5-yl]prop-2-enamide] | 0.1 to 100 | 0.1 to 100 | 0.1 to 100 | 100 to 250 | 0.1 to 100 |
| C=CC(=O)Nc1ccc2c(c1)c(C)cn2-c1nc(Nc2cnc(C)nc2C)ncc1F [Example 150, N-[1-[2-[(2,4-dimethylpyrimidin-5-yl)amino]-5-fluoro-pyrimidin-4-yl]-3-methyl-indol-5-yl]prop-2-enamide] | 0.1 to 100 | 100 to 250 | 0.1 to 100 | 250 to 1000 | 0.1 to 100 |
| C=CC(=O)Nc1ccc2c(c1)c(C)cn2-c1nc(Nc2cccnc2C)ncc1F [Example 153, N-[1-[5-fluoro-2-[(2-methyl-3-pyridyl)amino]pyrimidin-4-yl]-3-methyl-indol-5-yl]prop-2-enamide] | 100 to 250 | 0.1 to 100 | 0.1 to 100 | 250 to 1000 | 0.1 to 100 |
| C=CC(=O)Nc1ccc2c(-c3nc(Nc4cn(C)nc4C)ncc3F)cn(C)c2c1 [Example 154, N-[3-[2-[(1,3-dimethylpyrazol-4-yl)amino]-5-fluoro-pyrimidin-4-yl]-1-methyl-indol-6-yl]prop-2-enamide] | 0.1 to 100 | 0.1 to 100 | 0.1 to 100 | 250 to 1000 | 0.1 to 100 |
| C=CC(=O)Nc1ccc2c(c1)c(C)cn2-c1nc(Nc2cn(CC)nc2C)ncc1F [Example 156, N-[1-[2-[(1-ethyl-3-methyl-pyrazol-4-yl)amino]-5-fluoro-pyrimidin-4-yl]-3-methyl-indol-5-yl]prop-2-enamide] | 0.1 to 100 | 0.1 to 100 | 0.1 to 100 | 0.1 to 100 | 0.1 to 100 |
| C=CC(=O)Nc1ccc2c(c1)c(C)cn2-c1nc(Nc2cnn(CC(C)O)c2)ncc1F (stereo not drawn) [Example 158, N-[1-[5-fluoro-2-[[1-(2-hydroxypropyl)pyrazol-4-yl]amino]pyrimidin-4-yl]-3-methyl-indol-5-yl]prop-2-enamide] | 0.1 to 100 | 0.1 to 100 | 0.1 to 100 | 0.1 to 100 | 0.1 to 100 |
| C=CC(=O)Nc1ccc2c(c1)c(C)cn2-c1nc(Nc2cn(CC(F)F)nc2C)ncc1F [Example 164, N-[1-[2-[[1-(2,2-difluoroethyl)-3-methyl-pyrazol-4-yl]amino]-5-fluoro-pyrimidin-4-yl]-3-methyl-indol-5-yl]prop-2-enamide] | 0.1 to 100 | 0.1 to 100 | 0.1 to 100 | 0.1 to 100 | 0.1 to 100 |
| C=CC(=O)Nc1ccc2c(c1)c(C)cn2-c1nc(Nc2cn(CC(F)(F)F)nc2C)ncc1F [Example 165, N-[1-[5-fluoro-2-[[3-methyl-1-(2,2,2-trifluoroethyl)pyrazol-4-yl]amino]pyrimidin-4-yl]-3-methyl-indol-5-yl]prop-2-enamide] | 0.1 to 100 | 0.1 to 100 | 0.1 to 100 | 0.1 to 100 | 0.1 to 100 |
| C=CC(=O)Nc1ccc2c(c1)c(C)cn2-c1nc(Nc2cnn(CC3(O)CC3)c2)ncc1F [Example 175, N-[1-[5-fluoro-2-[[1-[(1-hydroxycyclopropyl)methyl]pyrazol-4-yl]amino]pyrimidin-4-yl]-3-methyl-indol-5-yl]prop-2-enamide] | 0.1 to 100 | 0.1 to 100 | 0.1 to 100 | 0.1 to 100 | 0.1 to 100 |
